Earlier results as cited in patent US9974861B2, “Peptide slow-release formulations” (CAMURUS AB, priority 2007, dated 2018).

Tests used:
[1] = tested on: SSTRs (SSTR1-SSTR5)

Molecule | Terminal half-life (in vivo) | Selectivity for SSTR2 and SSTR5 [1] | Biological half-life (natural hormone) | Affinity of SSTR1-SSTR5 ([1]; five known types of SSTRs)
C[C@@H](O)[C@@H]1NC(=O)[C@H](CCCCN)NC(=O)[C@@H](Cc2c[nH]c3ccccc23)NC(=O)[C@H](Cc2ccccc2)NC(=O)[C@@H](NC(=O)[C@H](N)Cc2ccccc2)CSSC[C@@H](C(=O)N[C@H](CO)[C@@H](C)O)NC1=O [Octreotide, D-Phe-Cys-Phe-D-Trp-Lys-Thr-Cys-Thr-ol (2-7 disulphide bridge)] | around 1.7 hours | high selectivity |  | 
Ala-Gly-Cys-Lys-Asn-Phe-Phe-Trp-Lys-Thr-Phe-Thr-Ser-Cys [SST-14] |  |  | 1-3 minutes | equally high affinity
